# Experimental data: paper PMC3907537, “Evaluation of the Endothelin Receptor Antagonists Ambrisentan, Bosentan, Macitentan, and Sitaxsentan as Hepatobiliary Transporter Inhibitors and Substrates in Sandwich-Cultured Human Hepatocytes” (PLoS ONE, 2014)
# Values joined by “and” are separate entries in the source; they are usually repeats but may differ in a detail not shown here. Identical values can stand only once. Like-named read-outs stand apart in the source and are kept apart here.
# How the values were obtained:
# Assay type in all cases: cell-based
# OATP1B1 = target: T1, OATP1B1 (Homo sapiens, UniProt Q9Y6L6); experiment: OATP1B1 inhibition, Fluo 3 uptake in transfected CHO cells
# T1 construct: host or cells: CHO
# T1 sequence (Q9Y6L6 1-691): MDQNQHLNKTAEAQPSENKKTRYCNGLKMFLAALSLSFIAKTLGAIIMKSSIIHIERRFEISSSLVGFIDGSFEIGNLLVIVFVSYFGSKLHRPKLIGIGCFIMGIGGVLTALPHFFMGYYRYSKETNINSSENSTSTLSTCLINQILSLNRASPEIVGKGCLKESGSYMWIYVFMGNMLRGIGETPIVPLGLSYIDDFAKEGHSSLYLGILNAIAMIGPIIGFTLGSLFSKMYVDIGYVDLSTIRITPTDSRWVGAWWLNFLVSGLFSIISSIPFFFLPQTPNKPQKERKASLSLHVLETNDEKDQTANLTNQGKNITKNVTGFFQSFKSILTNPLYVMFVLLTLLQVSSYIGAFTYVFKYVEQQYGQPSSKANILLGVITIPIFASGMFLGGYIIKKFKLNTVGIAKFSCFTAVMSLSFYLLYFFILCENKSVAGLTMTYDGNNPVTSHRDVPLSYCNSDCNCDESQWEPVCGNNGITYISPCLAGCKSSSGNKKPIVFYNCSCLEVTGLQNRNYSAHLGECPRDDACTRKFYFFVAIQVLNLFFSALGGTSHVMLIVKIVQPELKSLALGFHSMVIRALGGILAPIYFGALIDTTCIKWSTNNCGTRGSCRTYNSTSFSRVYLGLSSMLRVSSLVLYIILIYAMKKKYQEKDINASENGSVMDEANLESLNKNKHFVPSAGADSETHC
# Source text: (§1) Chinese Hamster Ovary (CHO) cells were obtained from Professor B. Stieger’s laboratory at University of Zurich, Zurich, Switzerland. Madin-Darby Canine Kidney strain II (MDCKII) cells were obtained from Nederlands Kanker Instituut (NKI), Amsterdam, Netherlands. NTCP-CHO cells, BSEP and MRP2 membrane vesicles were developed and validated at Solvo Biotechnology, Budaors, Hungary.
# (§2) CHO cells, either wild type or transfected with the genes encoding human NTCP, OATP1B1 and OATP1B3, were maintained in Dulbecco’s Modification of Eagle’s Medium (DMEM) containing 1,000 mg/L D-glucose, L-glutamine, 25 mM HEPES buffer, 110 mg/L sodium pyruvate, 1% Penicillin/Streptomycin, 10% fetal bovine serum (FBS), 0.05 mg/mL L proline and 0.5 mg/mL of geneticin G-418. Cells were maintained in incubators set at 37°C, 90% humidity and 5% CO2. OATP1B1 and OATP1B3 over-expressing cells were seeded in BioCoat Poly-D-Lysine coated 96-well black cell culture plates with clear bottoms at a density of 1×10^5 cells/well. Sodium butyrate (10 mM) was added to the OATP1B1 and OATP1B3 cells once seeded to increase the protein expression level and the cells were grown to confluence overnight. The assay buffer contained 142 mM NaCl, 5 mM KCl, 1 mM KH2PO4, 1.2 mM MgSO4, 1.5 mM CaCl2, 5 mM Glucose and 12.5 mM HEPES (pH 7.4). After removal of the media and before adding test compounds, the cells were washed twice with 37°C assay buffer followed by a 0.5 h pre-incubation with assay buffer. […] Wells were analyzed for Fluo 3 fluorescence at an excitation of 485 nm and emission of 530 nm. Inhibition of NTCP was studied using similar conditions to those described for OATP1B1 and OATP1B3 except that inhibition of the uptake ^3H taurocholate into transfected CHO cells was monitored using radioactive scintillation counting.
# (§3) All assays were performed in duplicate. […] IC50 values were calculated using non-linear fitting of % inhibition versus concentration to a sigmoidal curve with a variable Hill Coefficient using GraphPad Prism 5 (GraphPad Software Inc., San Diego, CA).
# OATP1B3 = target: T2, OATP1B3 (Homo sapiens, UniProt Q9NPD5); experiment: OATP1B3 inhibition, Fluo 3 uptake in transfected CHO cells
# T2 construct: host or cells: CHO
# T2 sequence (Q9NPD5 1-702): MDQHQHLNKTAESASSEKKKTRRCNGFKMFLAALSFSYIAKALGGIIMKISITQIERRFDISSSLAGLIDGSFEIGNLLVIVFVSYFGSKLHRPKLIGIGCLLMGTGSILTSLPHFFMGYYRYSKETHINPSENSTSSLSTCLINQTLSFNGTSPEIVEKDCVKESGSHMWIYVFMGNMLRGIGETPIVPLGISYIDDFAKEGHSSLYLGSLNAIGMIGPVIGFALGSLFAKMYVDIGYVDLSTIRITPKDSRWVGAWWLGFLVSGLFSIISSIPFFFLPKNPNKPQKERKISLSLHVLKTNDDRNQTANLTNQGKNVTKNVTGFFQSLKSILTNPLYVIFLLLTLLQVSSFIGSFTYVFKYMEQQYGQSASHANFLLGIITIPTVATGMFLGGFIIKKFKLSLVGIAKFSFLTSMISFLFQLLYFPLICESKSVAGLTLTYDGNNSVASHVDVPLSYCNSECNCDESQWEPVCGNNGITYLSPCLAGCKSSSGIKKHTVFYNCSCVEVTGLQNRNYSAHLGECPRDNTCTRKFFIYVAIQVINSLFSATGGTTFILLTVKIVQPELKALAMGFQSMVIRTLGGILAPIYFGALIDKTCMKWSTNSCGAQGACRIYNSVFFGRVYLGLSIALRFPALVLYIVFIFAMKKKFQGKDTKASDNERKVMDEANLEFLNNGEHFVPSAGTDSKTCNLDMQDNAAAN
# Source text: as §1, §2, §3
# NTCP = target: T3, NTCP (Homo sapiens, UniProt Q14973); experiment: NTCP inhibition, 3H taurocholate uptake in transfected CHO cells; settings: mean ± SD of 3 independent studies in duplicate, tested 0.14–100 µM
# T3 construct: host or cells: CHO
# T3 sequence (Q14973 1-349): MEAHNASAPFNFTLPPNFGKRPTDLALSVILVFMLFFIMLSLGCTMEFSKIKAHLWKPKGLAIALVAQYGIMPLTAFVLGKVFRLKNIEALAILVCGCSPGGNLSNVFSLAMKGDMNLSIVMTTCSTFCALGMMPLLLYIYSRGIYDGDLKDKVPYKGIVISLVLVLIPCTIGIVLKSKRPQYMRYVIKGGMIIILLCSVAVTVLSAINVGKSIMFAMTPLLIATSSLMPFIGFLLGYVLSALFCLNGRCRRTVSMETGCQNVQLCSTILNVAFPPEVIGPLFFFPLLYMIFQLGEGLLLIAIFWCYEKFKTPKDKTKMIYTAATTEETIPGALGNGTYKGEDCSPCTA
# Source text: as §1, §2, §3
# [1] = CHO cells, Fluo 3, mean ± SD of 3 independent studies in duplicate, tested 0.14–100 µM, read-out: OATP1B1 IC50
# [2] = CHO cells, Fluo 3, mean ± SD of 3 independent studies in duplicate, tested 0.14–100 µM, read-out: OATP1B3 IC50
Structure (SMILES),IC50 (OATP1B1) [µM],IC50 (OATP1B3) [µM],IC50 (NTCP),IC50 (OATP1B1; [1]) [µM],IC50 (OATP1B3; [2]) [µM]
COC(c1ccccc1)(c1ccccc1)[C@H](Oc1nc(C)cc(C)n1)C(=O)O [ambrisentan],47 ± 21.3,44.6 ± 23.8,> 100 µM,,
COc1ccccc1Oc1c(NS(=O)(=O)c2ccc(C(C)(C)C)cc2)nc(-c2ncccn2)nc1OCCO [bosentan],,,36 µM and 35.6 µM,5 ± 2,5.2 ± 2.1
CCCNS(=O)(=O)Nc1ncnc(OCCOc2ncc(Br)cn2)c1-c1ccc(Br)cc1 [macitentan],,,10 µM and 9.8 µM,2 ± 0.3,2.1 ± 0.3
